Laboratory results: ChEMBL document CHEMBL5356973 (J Med Chem, 2023)
pEC50: −log10 of the molar value. Activity calls are given as the source filed them. No cut-off for these calls is given here.

Key:
Mus musculus [1] = test: Antinociceptive activity in Kunming mouse assessed as changes in tail flick latency by measuring time duration of action at 0.88 to 8.82 nmol/kg, po measured for 360 mins by tail-flick test; format: functional; details: dose 0.88-8.82 nmol/kg, 6 h
[2] = target: T1, Kappa-type opioid receptor (Homo sapiens, UniProt P41145); test: Agonist activity at KOR (unknown origin) transfected in CHO cells co-expressing Galphaq15 assessed as increase in calcium mobilization by measuring maximal efficacy by Fluo-4AM dye based assay relative to control; format: functional, cell-based; details: filed as agonist
T1 sequence (P41145 whole entry): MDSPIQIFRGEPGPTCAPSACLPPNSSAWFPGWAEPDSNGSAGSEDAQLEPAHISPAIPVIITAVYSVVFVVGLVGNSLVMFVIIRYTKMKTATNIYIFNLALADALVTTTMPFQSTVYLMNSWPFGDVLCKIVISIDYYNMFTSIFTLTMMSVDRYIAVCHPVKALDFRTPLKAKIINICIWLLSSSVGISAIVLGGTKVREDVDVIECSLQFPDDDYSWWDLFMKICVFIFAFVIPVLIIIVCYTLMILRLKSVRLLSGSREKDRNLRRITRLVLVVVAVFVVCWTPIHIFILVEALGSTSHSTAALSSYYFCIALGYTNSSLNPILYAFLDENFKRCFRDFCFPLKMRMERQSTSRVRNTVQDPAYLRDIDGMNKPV

[3] = target: T2, Delta-type opioid receptor (Homo sapiens, UniProt P41143); test: Agonist activity at DOR (unknown origin) transfected in CHO cells co-expressing Galphaq15 assessed as increase in calcium mobilization by Fluo-4AM dye based assay; format: functional, cell-based
T2 sequence (P41143 whole entry): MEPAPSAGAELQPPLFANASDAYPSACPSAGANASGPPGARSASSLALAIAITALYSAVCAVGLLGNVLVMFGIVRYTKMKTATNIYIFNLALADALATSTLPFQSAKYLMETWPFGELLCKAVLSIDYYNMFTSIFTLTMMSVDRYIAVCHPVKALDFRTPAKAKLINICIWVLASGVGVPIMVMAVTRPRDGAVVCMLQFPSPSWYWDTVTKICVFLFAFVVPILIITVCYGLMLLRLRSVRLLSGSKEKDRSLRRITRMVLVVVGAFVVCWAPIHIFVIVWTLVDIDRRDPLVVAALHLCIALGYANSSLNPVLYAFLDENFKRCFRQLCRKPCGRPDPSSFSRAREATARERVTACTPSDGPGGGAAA

Mus musculus [4] = test: Antinociceptive activity in Kunming mouse assessed as changes in tail flick latency by measuring maximal possible effect at 0.88 nmol/kg, sc measured after 120 mins by tail-flick test; format: functional; details: 2 h
[5] = Toxicity in Kunming mouse assessed as reduction in respiration frequency at 88 nmol/kg, sc measured upto 100 mins by whole-body plethysmography; format: organism-based; details: in vivo, 1.667 h
[6] = Toxicity in sc dosed 16 hrs fasted Kunming mouse assessed as constipation by measuring inhibition of gastrointestinal transit administered for 15 mins followed by charcoal meal and measured after 30 mins; format: organism-based; details: in vivo, 0.75 h, time 45 min
Mus musculus [7] = test: Antinociceptive activity in Kunming mouse assessed as changes in tail flick latency by measuring maximal possible effect at 0.88 nmol/kg, sc measured after 240 mins by tail-flick test; format: functional; details: 4 h
Mus musculus [8] = test: Antinociceptive activity in Kunming mouse assessed as changes in tail flick latency at 0.88 nmol/kg, sc pretreated with nor-binaltorphimine at 10 nmol, icv for 30 mins followed by compound addition and measured for 360 mins by tail-flick test; format: functional, organism-based
Mus musculus [9] = test: Antinociceptive activity in Kunming mouse assessed as changes in tail flick latency at 0.009 nmol/kg, sc pretreated with 1-adamantanecarbonyl-RF-NH2 at 10 nmol, icv for 5 mins followed by compound addition and measured for 360 mins by tail-flick test; format: functional, organism-based
[10] = Metabolic stability in mouse brain homogenate assessed as degradation half life at 10 mM measured upto 480 mins by RP-HPLC analysis; format: ADME, tissue-based
[11] = AUC in Kunming mouse plasma at 1 mg/kg, iv measured upto 240 mins by LC-MS/MS analysis; format: ADME, organism-based; design: time < 240 min, dose 1 mg/kg, route iv
[12] = Toxicity in Kunming mouse assessed as addiction behavior at 88 nmol/kg, sc administered for 3 days starting from day 2 and measured on day 5 by conditioned place preference test; format: organism-based; details: in vivo, 96 h, time 4 day
Mus musculus [13] = test: Antinociceptive activity in Kunming mouse assessed as changes in tail flick latency by measuring maximal possible effect at 0.88 nmol/kg, sc measured after 30 mins by tail-flick test; format: functional; details: 0.5 h
Mus musculus [14] = test: Antinociceptive activity in Kunming mouse assessed as changes in tail flick latency at 0.88 nmol/kg, sc pretreated with naloxone methiodide at 5 nmol, icv for 10 mins followed by compound addition and measured for 360 mins by tail-flick test; format: functional, organism-based
[15] = Ratio of AUC in brain to plasma in Kunming mouse at 1 mg/kg, iv measured upto 240 mins by LC-MS/MS analysis; format: ADME, organism-based; details: read-out: BPR
Mus musculus [16] = test: Antinociceptive activity in Kunming mouse assessed as changes in tail flick latency at 0.88 nmol/kg, sc pretreated with naltrindole at 10 nmol, icv for 10 mins followed by compound addition and measured for 360 mins by tail-flick test; format: functional, organism-based
[17] = Toxicity in Kunming mouse assessed as effect on motor coordination at 88 nmol/kg, sc measured after 15 to 45 mins by rotarod test; format: organism-based; details: in vivo, time 15-45 min
Mus musculus [18] = test: Antinociceptive activity in Kunming mouse assessed as changes in tail flick latency by measuring time duration of antinociceptive effect at 0.88 nmol/kg, sc by tail-flick test; format: functional
Mu-type opioid receptor [19] = target: T3, Mu-type opioid receptor (Homo sapiens, UniProt P35372); test: Agonist activity at MOR (unknown origin) transfected in CHO cells co-expressing Galphaq15 assessed as increase in calcium mobilization by measuring maximal efficacy by Fluo-4AM dye based assay relative to control; format: functional, cell-based; details: filed as agonist
T3 sequence (P35372 whole entry): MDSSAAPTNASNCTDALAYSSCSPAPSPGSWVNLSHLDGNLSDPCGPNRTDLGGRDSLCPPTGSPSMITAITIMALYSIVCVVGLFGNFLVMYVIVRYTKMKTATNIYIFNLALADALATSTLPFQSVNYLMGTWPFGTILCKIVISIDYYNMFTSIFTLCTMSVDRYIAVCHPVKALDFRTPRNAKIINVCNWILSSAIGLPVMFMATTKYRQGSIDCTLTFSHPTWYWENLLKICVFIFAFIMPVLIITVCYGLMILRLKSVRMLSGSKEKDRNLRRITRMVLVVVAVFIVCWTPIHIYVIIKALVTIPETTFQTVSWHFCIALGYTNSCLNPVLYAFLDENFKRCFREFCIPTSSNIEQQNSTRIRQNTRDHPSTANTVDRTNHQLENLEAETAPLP

Mus musculus [20] = test: Antinociceptive activity in Kunming mouse assessed as changes in tail flick latency by measuring time duration of action at 1 to 10 pmol, icv measured for 360 mins by tail-flick test; format: functional; details: dose 1-10 pmol, 6 h
[21] = Toxicity in sc dosed Kunming mouse assessed as effect on naloxone-induced jumping response at 88 nmol/kg, sc administered every 8 hrs for 3 days followed by naloxone administration at 2 hrs post last dose and measured immediately by Nal-precipitated withdraw test; format: organism-based; details: in vivo, 74 h
Mus musculus [22] = test: Antinociceptive activity in Kunming mouse assessed as changes in tail flick latency at 0.88 nmol/kg, sc pretreated with beta-funaltrexamine at 10 nmol, icv for 4 hrs followed by compound addition and measured for 360 mins by tail-flick test; format: functional, organism-based
Mus musculus [23] = test: Antinociceptive activity in sc dosed Kunming mouse assessed as changes in tail flick latency measured after 10 to 360 mins by tail-flick test; format: functional; details: time 10-360 min
Mus musculus [24] = test: Antinociceptive activity in Kunming mouse assessed as changes in tail flick latency by measuring maximal possible effect at 0.88 nmol/kg, sc measured after 20 mins by tail-flick test; format: functional
[25] = AUC in Kunming mouse brain at 1 mg/kg, iv measured upto 240 mins by LC-MS/MS analysis; format: ADME, organism-based; design: time < 240 min, dose 1 mg/kg, route iv; details: in vivo, 4 h
[26] = target: T4, Neuropeptide FF receptor 2 (Homo sapiens, UniProt Q9Y5X5); test: Agonist activity at NPFF2R (unknown origin) transfected in HEK293 cells co-expressing Galphaq15 assessed as increase in calcium mobilization by measuring maximal efficacy by Fluo-4AM dye based assay relative to control; format: functional, cell-based; details: filed as agonist
T4 sequence (Q9Y5X5 whole entry): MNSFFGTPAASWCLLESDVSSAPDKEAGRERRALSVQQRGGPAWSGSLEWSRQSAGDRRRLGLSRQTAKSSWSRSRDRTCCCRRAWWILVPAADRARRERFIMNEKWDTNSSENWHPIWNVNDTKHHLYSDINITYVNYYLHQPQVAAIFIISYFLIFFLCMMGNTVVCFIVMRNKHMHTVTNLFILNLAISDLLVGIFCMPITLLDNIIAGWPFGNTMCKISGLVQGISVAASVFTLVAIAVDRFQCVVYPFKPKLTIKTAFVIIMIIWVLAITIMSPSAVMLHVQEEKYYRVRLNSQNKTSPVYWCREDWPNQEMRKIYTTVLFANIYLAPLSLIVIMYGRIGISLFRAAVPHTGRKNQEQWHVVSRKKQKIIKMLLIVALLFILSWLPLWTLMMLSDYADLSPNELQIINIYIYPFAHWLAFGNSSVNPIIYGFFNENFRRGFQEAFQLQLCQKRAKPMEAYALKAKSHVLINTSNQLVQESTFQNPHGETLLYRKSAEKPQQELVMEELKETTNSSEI

[27] = Metabolic stability in mouse plasma assessed as degradation half life at 10 mM measured upto 480 mins by RP-HPLC analysis; format: ADME, cell-free
[28] = Induction of antinociceptive tolerance in Kunming mouse assessed as decrease in tail flick latency at 0.88 nmol/kg, sc administered once daily for 8 days and measured once daily by tail-flick test; format: toxicity, organism-based; details: in vivo, 192 h, time 8 day
[29] = Agonist activity at NPFF1R (unknown origin) transfected in CHO cells co-expressing Galphaq15 assessed as increase in calcium mobilization by measuring maximal efficacy by Fluo-4AM dye based assay relative to control; format: functional, cell-based; details: Homo sapiens, filed as agonist
[30] = target: T2, Delta-type opioid receptor; test: Agonist activity at DOR (unknown origin) transfected in CHO cells co-expressing Galphaq15 assessed as increase in calcium mobilization by measuring maximal efficacy by Fluo-4AM dye based assay relative to control; format: functional, cell-based; details: filed as agonist
Mus musculus [31] = test: Antinociceptive activity in po dosed Kunming mouse assessed as changes in tail flick latency measured for 360 mins by tail-flick test; format: functional; details: for ED50: 6 h
Mus musculus [32] = test: Antinociceptive activity in Kunming mouse assessed as changes in tail flick latency by measuring maximal possible effect at 0.88 nmol/kg, sc measured after 60 mins by tail-flick test; format: functional; details: 1 h
[33] = target: T1, Kappa-type opioid receptor; test: Agonist activity at KOR (unknown origin) transfected in CHO cells co-expressing Galphaq15 assessed as increase in calcium mobilization by Fluo-4AM dye based assay; format: functional, cell-based
[34] = Toxicity in Kunming mouse assessed as effect on locomotor activity at 88 nmol/kg, sc measured after 20 to 180 mins by open field test; format: organism-based; details: in vivo, time 20-180 min
[35] = target: T4, Neuropeptide FF receptor 2; test: Agonist activity at NPFF2R (unknown origin) transfected in HEK293 cells co-expressing Galphaq15 assessed as increase in calcium mobilization by Fluo-4AM dye based assay; format: functional, cell-based
Mus musculus [36] = test: Antinociceptive activity in icv dosed Kunming mouse assessed as changes in tail flick latency measured for 360 mins by tail-flick test; format: functional; details: for ED50: 6 h
Mu-type opioid receptor [37] = target: T3, Mu-type opioid receptor; test: Agonist activity at MOR (unknown origin) transfected in CHO cells co-expressing Galphaq15 assessed as increase in calcium mobilization by Fluo-4AM dye based assay; format: functional, cell-based

Compound	Time (Mus musculus [1])	Emax [2]	pEC50 [3]	MPE (Mus musculus [4])	Activity [5]	ED50 [6]	MPE (Mus musculus [7])	Activity (Mus musculus [8])	Activity (Mus musculus [9])	half-life at 10000 µM [10]	Activity [12]	MPE (Mus musculus [13])	Activity (Mus musculus [14])	Activity (Mus musculus [16])	Activity [17]	Time (Mus musculus [18])	Emax (Mu-type opioid receptor [19])	Time (Mus musculus [20])	Activity [21]	Activity (Mus musculus [22])	further results
CN1C(=O)CNC(=O)[C@H](N[C@@H](Cc2ccc(O)cc2)C(=O)O)CCCC/C=C\C[C@@H](C(=O)N2CCC[C@H]2C(=O)N[C@@H](CCC(N)=O)C(=O)N[C@@H](CCCNC(=N)N)C(=O)N[C@@H](Cc2ccccc2)C(N)=O)NC(=O)[C@@H]1Cc1ccccc1	<=360 min	99.2%	7.25	58.9%	Non-Toxic	84 nmol/kg	46.2%	inactive	Active	1.78 h	Non-Toxic	89.5%	inactive	Active	Non-Toxic	360 min	98.1%	<=360 min	Non-Toxic	inactive	AUC at 4 h [11]: 2270 ng·h/mL; Kp at 4 h [15]: 1.35; Activity (Mus musculus [23]): Dose-Dependent Effect; ED50 (Mus musculus [23]): 1e-05 µmol/kg; MPE (Mus musculus [24]): 89.8%; AUC [25]: 183.2 µg·min/g; Emax [26]: 89.2%; half-life at 10000 µM [27]: 0.447 h; Activity [28]: Non-Toxic; Emax [29]: 93.7%; Emax [30]: 81.9%; Activity (Mus musculus [31]): Dose-Dependent Effect; ED50 (Mus musculus [31]): 0.00135 µmol/kg; MPE (Mus musculus [32]): 85.4%; pEC50 [33]: 6.77; Activity [34]: Non-Toxic; pEC50 [35]: 6.84; Activity (Mus musculus [36]): Dose-Dependent Effect; ED50 (Mus musculus [36]): 1.38 pmol; pEC50 (Mu-type opioid receptor [37]): 8.55
CN1C(=O)CNC(=O)[C@H](N[C@@H](Cc2ccc(O)cc2)C(=O)O)CCCC/C=C/C[C@@H](C(=O)N2CCC[C@H]2C(=O)N[C@@H](CCC(N)=O)C(=O)N[C@@H](CCCNC(=N)N)C(=O)N[C@@H](Cc2ccccc2)C(N)=O)NC(=O)[C@@H]1Cc1ccccc1	<=360 min	106%	6.64	72.8%	Non-Toxic	95.4 nmol/kg	43.5%	inactive	Active	2.98 h	Non-Toxic	77.2%	inactive	Active	Non-Toxic	360 min	95%	<=360 min	Non-Toxic	inactive	Activity (Mus musculus [23]): Dose-Dependent Effect; ED50 (Mus musculus [23]): 2e-05 µmol/kg; MPE (Mus musculus [24]): 89.9%; Emax [26]: 119%; half-life at 10000 µM [27]: 0.63 h; Activity [28]: Non-Toxic; Emax [29]: 88.1%; Emax [30]: 77.3%; Activity (Mus musculus [31]): Dose-Dependent Effect; ED50 (Mus musculus [31]): 0.00195 µmol/kg; MPE (Mus musculus [32]): 80.5%; pEC50 [33]: 6.46; Activity [34]: Non-Toxic; pEC50 [35]: 7.48; Activity (Mus musculus [36]): Dose-Dependent Effect; ED50 (Mus musculus [36]): 1.82 pmol; pEC50 (Mu-type opioid receptor [37]): 7.80
